# According to publication PMC8406298, “Discovery of Fungus-Specific Targets and Inhibitors Using Chemical Phenotyping of Pathogenic Spore Germination” (mBio, 2021):
# Experiments:
# [1] = test system: Cryptococcus yeast (CHY3833 and CHY3836); assay: Yeast replication secondary screen (OD600); type: cell-based, Cryptococcus neoformans serotype D (deneoformans); conditions: 10 μM, 12 h at 30°C
# Procedure: (ii) Yeast replication. CHY3833 and CHY3836 were each grown in YPD liquid overnight at 30°C to saturation and then resuspended in 0.5× YPD at an OD600 of 0.005. Strains were aliquoted into 384-well plates with inhibitors and grown for 12 h at 30°C at […] before OD600 readings were taken. Compounds that caused a >10% decrease in growth were considered yeast growth inhibitors.
# [2] = test system: normal human dermal fibroblasts (NHDF) cells; assay: Fibroblast cytotoxicity (CellTiter-Glo); type: cell-based; conditions: 10 µM
# Procedure: PrimaPure normal human dermal fibroblasts (NHDF) cells (Genlatis PH10605A) were cultured and passaged in fibroblast growth medium (Genlatis PM116500) according to the manufacturer’s protocol. NHDF cells (1 × 10^3 per well) were plated in a 384-well plate in cell culture medium. The cells were incubated with each compound of interest at 10 μM concentration for 72 h at 37°C and 5% CO2. Following treatment, CellTiter-Glo (Promega) reagent was used to assay ATP-dependent luminescence and thus provide a measure of cell viability. […] For cytotoxicity dose-response curves (Fig. 4C and Fig. 5C), compounds were titrated from 80 μM to 0.5 μM in duplicates.
Structure (SMILES),Yeast Inhibition: % Inhibition [1] [%],Cytotoxicity: Relative Cell Viability (% of Negative Control) [2]
C=CCN(CC=C)CC(O)CN1c2ccccc2Sc2ccccc21 (stereo not drawn) [compound 2896856],43.9,5.4 % of Negative Control
Cc1ccc(N2C(=O)CC(Sc3ccccc3C(=O)O)C2=O)c(Br)c1 (stereo not drawn) [compound 2919713],67.2,94.3 % of Negative Control
ClC1(Cl)CC1Cn1cnc2ccccc21 (stereo not drawn) [compound 2936975],49.3,93.7 % of Negative Control
O=C1c2ccccc2S(=O)(=O)N1CC(O)COc1ccc(Cl)cc1Cl (stereo not drawn) [compound 2943193],57.4,90.5 % of Negative Control
Cc1ccc(N2C(=O)CC(Sc3ccccc3C(=O)N3CCOCC3)C2=O)cc1 (stereo not drawn) [compound 2951953],52.3,94.9 % of Negative Control
CCOC(=O)c1ccc(NC(=O)CC2Sc3ncnn3C2=O)cc1 (stereo not drawn) [compound 2954695],101.7,99.4 % of Negative Control
NS(=O)(=O)c1ccc(NC(=O)CSC2CC(=O)N(c3ccc(Br)cc3)C2=O)cc1 (stereo not drawn) [compound 2974037],90.7,102.2 % of Negative Control
CN(C)S(=O)(=O)N1CCN(CC(O)COc2ccc3cc(Br)ccc3c2)CC1 (stereo not drawn) [compound 2981975],70.4,88.7 % of Negative Control
CCn1c(CSc2ccccc2)nc2ccccc21 [compound 2992099],59.0,99.2 % of Negative Control
ClC(Cl)(c1nnnn1-c1ccccc1)c1nnnn1-c1ccccc1 [compound 3090522],87.7,90.6 % of Negative Control
CC1Cc2ccccc2N1C(=O)CCn1c(=O)sc2ccccc21 (stereo not drawn) [compound 3163780],-1.3,59.5 % of Negative Control
S=C1SCN(Cc2ccccn2)CN1Cc1ccco1 [compound 3242906],100.6,103.5 % of Negative Control
O=C1CC(c2ccccc2)[Se]C(c2ccccc2)C1 (stereo not drawn) [compound 3287596],100.2,45.9 % of Negative Control
COC(=O)C1=C(N)OC2=C(C(=O)CCC2)C1c1ccc(OC)c(OC)c1 (stereo not drawn) [compound 3355288],9.4,104.5 % of Negative Control
S=C(NCc1ccco1)SCc1cn2ccccc2n1 [compound 3377203],66.6,86.3 % of Negative Control
CCCOC1(NS(=O)(=O)c2ccccc2)C(Cl)=C(Cl)C(=O)c2ccccc21 (stereo not drawn) [compound 3397555],101.3,17.7 % of Negative Control
Cc1ccc2nc(Nc3ccncc3)nc(-c3ccccc3)c2c1 [compound 3516311],20.1,72.7 % of Negative Control
Nc1cc(Cl)c([N+](=O)[O-])cc1OCc1ccccc1 [compound 3521356],52.3,102.1 % of Negative Control
O=C(Nc1ccc2sccc2c1)c1ccc([N+](=O)[O-])s1 [compound 3629287],97.9,19.4 % of Negative Control
CC(C)(C)c1c[se]c(=S)s1 [compound 3797566],91.9,98.5 % of Negative Control
CCOC(=O)N1CCN(C(c2ccccn2)c2c(-c3ccccc3)n(O)c3ccccc23)CC1 (stereo not drawn) [compound 4081132],101.5,84.9 % of Negative Control

Structure (SMILES),Yeast Inhibition: % Inhibition [1] [%],Cytotoxicity: Relative Cell Viability (% of Negative Control) [2]
CC(C)C(=O)Nc1nnc(SCc2cccc(F)c2)s1 [compound 4086498],20.2,106.8 % of Negative Control
CCCCCCCNS(=O)(=O)c1ccc(OCC)cc1 [compound 4102712],46.8,43.9 % of Negative Control
O=C(N=C1C(Cl)=C(Cl)C(=O)c2ccccc21)c1ccc(Cl)cc1 [compound 4111118],100.7,7.1 % of Negative Control
O=C(Nc1cccc(C(F)(F)F)c1)C(Cl)C(=O)c1ccccc1 (stereo not drawn) [compound 4162926],101.5,20.8 % of Negative Control
N#CC(C#N)=NNc1cccc(Br)c1 [compound 4199189],101.2,31.1 % of Negative Control
c1ccc(-c2nc([P+](c3ccccc3)(c3ccccc3)c3ccccc3)c(N3CCCCCC3)o2)cc1 [compound 4345313],101.2,28.8 % of Negative Control
CCSc1oc(-c2ccco2)nc1[P+](c1ccccc1)(c1ccccc1)c1ccccc1 [compound 4360162],72.3,41.9 % of Negative Control
Cc1cc(C)c(S(=O)(=O)Nc2nc(C(F)(F)F)cs2)c(C)c1 [compound 4413055],9.5,49.5 % of Negative Control
Nc1c(-c2ccccc2)sc2nc(-c3ccccc3)cc[n+]12 [compound 4458495],87.8,52.5 % of Negative Control
CCC(OCC(O)CN1CCC(Cc2ccccc2)CC1)c1ccccc1 (stereo not drawn) [compound 4471873],82.2,78.8 % of Negative Control
COC(=O)c1c(NC(=O)c2ccc(C(C)(C)C)cc2)sc2c1CCN(C(C)C)C2 [compound 4684724],50.4,34.9 % of Negative Control
CN(Cc1ccccc1)C(=O)COc1ccc(Br)cc1 [compound 4690650],25.9,66.8 % of Negative Control
Clc1ccc2nc(Nc3ccncc3)nc(-c3ccccc3)c2c1 [compound 4714160],14.9,90.5 % of Negative Control
Cc1ccc2cc(CCC#N)c(Cl)nc2c1 [compound 4736829],62.6,96.3 % of Negative Control
O=[N+]([O-])CC(SCCO)c1ccc(O)cc1 (stereo not drawn) [compound 4737365],99.2,25.2 % of Negative Control
C=C(C)Cn1c(C2CC(=O)N(c3ccccc3F)C2)nc2ccccc21 (stereo not drawn) [compound 4754109],6.6,95.9 % of Negative Control
COc1cc(-c2c(C#N)c(N)nc3c2c(C)nn3-c2ccc(C)cc2)cc(OC)c1OC [compound 4893324],-3.0,84.7 % of Negative Control
COc1cccc2cc(-c3csc(NN=C4CCN(C)CC4)n3)c(=O)oc12 [compound 4913014],99.6,68.7 % of Negative Control
COc1ccc(/C=C/c2nc3ccccc3[nH]2)cc1 [compound 5769808],70.2,14.4 % of Negative Control
C/C=C/c1ccc(OCCn2cnc3ccccc32)c(OC)c1 [compound 5769972],79.1,97.3 % of Negative Control
CN(C)/C=C/c1cc(=S)c2ccccc2s1 [compound 5991625],65.3,72.5 % of Negative Control
